Measurements as given in patent US20140275063A1, “NEW ENZYME INHIBITOR COMPOUNDS” (PROXIMAGEN LIMITED, priority 2011, published 2014).
pIC50: −log10 of the molar value. Counter-ions that a name gives are not always drawn.

Molecular target: T1, human SSAO (Homo sapiens, UniProt Q16853)
T1 construct: made in house
T1 sequence (Q16853 29-763 limits assumed): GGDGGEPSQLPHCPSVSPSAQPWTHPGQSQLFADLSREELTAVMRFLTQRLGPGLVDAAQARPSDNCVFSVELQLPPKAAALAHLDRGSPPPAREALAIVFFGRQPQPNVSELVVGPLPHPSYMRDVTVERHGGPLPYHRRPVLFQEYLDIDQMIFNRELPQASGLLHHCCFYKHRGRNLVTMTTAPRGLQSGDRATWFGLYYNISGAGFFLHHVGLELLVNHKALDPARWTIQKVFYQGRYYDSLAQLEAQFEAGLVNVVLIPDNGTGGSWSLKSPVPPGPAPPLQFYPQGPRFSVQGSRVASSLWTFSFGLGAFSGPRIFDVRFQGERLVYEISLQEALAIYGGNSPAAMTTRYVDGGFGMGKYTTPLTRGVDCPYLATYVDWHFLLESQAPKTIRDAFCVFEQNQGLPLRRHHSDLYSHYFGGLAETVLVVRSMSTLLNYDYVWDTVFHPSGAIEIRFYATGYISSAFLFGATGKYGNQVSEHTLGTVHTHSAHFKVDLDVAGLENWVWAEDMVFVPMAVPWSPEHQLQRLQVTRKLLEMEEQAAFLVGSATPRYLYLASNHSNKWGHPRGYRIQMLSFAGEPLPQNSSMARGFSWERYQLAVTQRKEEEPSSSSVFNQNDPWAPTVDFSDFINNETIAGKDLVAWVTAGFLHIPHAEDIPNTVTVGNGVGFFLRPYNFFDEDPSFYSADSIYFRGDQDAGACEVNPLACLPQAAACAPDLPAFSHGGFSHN
Assay: SSAO inhibitory activity (HRP-coupled hydrogen peroxide detection or 14C-benzaldehyde detection, benzylamine substrate)
Type: biochemical
Details: purified recombinantly expressed human SSAO, benzylamine as substrate, RT
Description: All primary assays were performed at RT. with purified recombinantly expressed human SSAO. Enzyme was prepared essentially as described in Öhman et al. (Protein Expression and Purification 46 (2006) 321-331). In addition, secondary- and selectivity assays were performed using SSAO prepared from various tissues or purified rat recombinant SSAO. The enzyme activity was assayed with benzylamine as substrate by measuring either benzaldehyde production, using ^14C-labeled substrate, or by utilizing the production of hydrogen peroxide in a horseradish peroxidase (HRP) coupled reaction. Briefly, test compounds were dissolved in dimethyl sulfoxide (DMSO) to a concentration of 10 mM. Dose-response measurements were assayed by either creating 1:10 serial dilutions in DMSO to produce a 7 point curve or by making 1:3 serial dilutions in DMSO to produce 11 point curves. The top concentrations were adjusted depending on the potency of the compounds and subsequent dilution in reaction buffer yielded a final DMSO concentration ≦2%.
In a horseradish peroxidase (HRP) coupled reaction, hydrogen peroxide oxidation of 10-acetyl-3,7-dihydroxyphenoxazine produced resorufin, which is a highly fluorescent compound (Zhout and Panchuk-Voloshina. Analytical Biochemistry 253 (1997) 169-174; Amplex® Red Hydrogen Peroxideperoxidase Assay kit, Invitrogen A22188). Enzyme and compounds in 50 mM sodium phosphate, pH 7.4 were set to pre-incubate in flat-bottomed microtiter plates for approximately 15 minutes before initiating the reaction by addition of a mixture of HRP, benzylamine and Amplex reagent. Benzylamine concentration was fixed at a concentration corresponding to the Michaelis constant, determined using standard procedures. Fluorescence intensity was then measured at several time points during 1-2 hours, exciting at 544 nm and reading the emission at 590 nm. For the human SSAO assay final concentrations of the reagents in the assay wells were: SSAO enzyme 1 μg/ml, benzylamine 100 μM, Amplex reagent 20 μM, HRP 0.1 U/mL and varying concentrations of test compound. The inhibition was measured as % decrease of the signal compared to a control without inhibitor (only diluted DMSO). The background signal from a sample containing no SSAO enzyme was subtracted from all data points. Data was fitted to a four parameter logistic model and IC50 values were calculated using the Graph Pad Prism 4 or XLfit 4 programs.
SSAO activity was assayed using 14C-labeled benzylamine and analysed by measuring radioactive benzaldehyde. In a white 96-well optiplate (Packard), 20 μL of diluted test compound was pre-incubated at RT. with 20 μL SSAO enzyme for approximately 15 minutes with continuous agitation. All dilutions were made with PBS. The reaction was initiated by adding 20 μL of the benzylamine substrate solution containing [7-14C] Benzylamine hydrochloride (CFA589, GE Healthcare). The plate was incubated for 1 hour as above after which the reaction was stopped by acidification (10 μL 1 M HCl). Then 90 μL Micro Scint-E solution (Perkin-Elmer) was added to each well and the plate was continuously mixed for 15 minutes. Phase separation occurred instantly and activity was read in a Topcount scintillation counter (Perkin-Elmer). In the final reaction well, the human recombinant SSAO concentration was 10 μg/ml. In order to optimize sensitivity, the substrate concentration was decreased as compared to the HRP coupled assay in order to get a higher fraction of radioactive product. In the human SSAO assay, benzylamine concentration was 40 μM (0.2 μCi/mL). Data was analysed as above.

SMILES	pIC50
CCN1CCC(CNC(=O)N2CCC(c3cn(-c4ccc(Cl)cc4)c4cnccc34)CC2)CC1 [Compound 12, 4-[1-(4-Chlorophenyl)-1H-pyrrolo[2,3-c]pyridin-3-yl]-N-[(1-ethylpiperidin-4-yl)methyl] piperidine-1-carboxamide]	> 7.00
CC(C)N1CCC(CNC(=O)N2CCC(c3cn(-c4ccc(Cl)cc4)c4cnccc34)CC2)CC1 [Compound 27, 4-[1-(4-Chlorophenyl)-1H-pyrrolo[2,3-c]pyridin-3-yl]-N-{[1-(propan-2-yl)piperidin-4-yl]methyl}piperidine-1-carboxamide; formic acid]	> 7.00
CN1CCC(CNC(=O)N2CCC(c3cn(-c4ccc(Cl)cc4)c4cnccc34)CC2)CC1 [Compound 11, 4-[1-(4-Chlorophenyl)-1H-pyrrolo[2,3-c]pyridin-3-yl]-N-[(1-methylpiperidin-4-yl)methyl] piperidine-1-carboxamide]	> 7.00
CC(=O)N1CCC(NC(=O)N2CCC(c3cn(-c4ccc(Cl)cc4)c4cnccc34)CC2)CC1 [Compound 10, N-(1-Acetylpiperidin-4-yl)-4-[1-(4-chlorophenyl)-1H-pyrrolo [2,3-c]pyridin-3-yl]piperidine-1-carboxamide]	> 7.00
O=C(NC(c1nn[nH]n1)C1CC1)N1CCC(c2cn(-c3ccc(Cl)cc3)c3cnccc23)CC1 (stereo not shown) [Compound 62, 4-[1-(4-Chlorophenyl)-1H-pyrrolo[2,3-c]pyridin-3-yl]-N—[cyclopropyl(2H-1,2,3,4-tetrazol-5-yl)methyl]piperidine-1-carboxamide; trifluoroacetic acid]	> 7.00
CN1CCC(NC(=O)N2CCC(c3cn(-c4ccc(Cl)cc4)c4cnccc34)CC2)CC1 [Compound 8, 4-[1-(4-Chlorophenyl)-1H-pyrrolo[2,3-c]pyridin-3-yl]-N-(1-methylpiperidin-4-yl)piperidine-1-carboxamide]	> 7.00
O=C(NCC1CCNCC1)C1CCN(c2nn(-c3ccc(Cl)cc3)c3cnccc23)CC1 [Compound 47, 1-[1-(4-Chlorophenyl)-1H-pyrazolo[3,4-c]pyridin-3-yl]-N-(piperidin-4-ylmethyl)piperidine-4-carboxamide dihydrochloride]	6.30 to 7.00
CC(=O)NCCCNC(=O)N1CCC(c2cn(-c3ccc(Cl)cc3)c3cnccc23)CC1 [Compound 29, N-[3-({4-[1-(4-Chlorophenyl)-1H-pyrrolo[2,3-c]pyridin-3-yl]piperidin-1-yl}carbonylamino)propyl]acetamide]	> 7.00
CC(C)N1CCC(CN(C)C(=O)N2CCC(c3cn(-c4ccc(Cl)cc4)c4cnccc34)CC2)CC1 [Compound 15, 4-[1-(4-Chlorophenyl)-1H-pyrrolo[2,3-c]pyridin-3-yl]-N-methyl-N-{[1-(propan-2-yl)piperidin-4-yl]methyl} piperidine-1-carboxamide]	> 7.00
Cc1ccc(-n2nc(N3CCOC(CNCCN)C3)c3ccncc32)cc1 (stereo not shown) [Compound 33, (2-Aminoethyl)({4-[1-(4-methylphenyl)-1H-pyrazolo[3,4-c]pyridin-3-yl]morpholin-2-yl}methyl)amine trihydrochloride]	6.30 to 7.00
Clc1ccc(-n2nc(N3CCOC(CN4CCNCC4)C3)c3ccncc32)cc1 (stereo not shown) [Compound 36, 4-[1-(4-Chlorophenyl)-1H-pyrazolo[3,4-c]pyridin-3-yl]-2-(piperazin-1-ylmethyl) morpholine trihydrochloride]	> 7.00
CN1CCC(CN(C)C(=O)N2CCC(c3cn(-c4ccc(Cl)cc4)c4cnccc34)CC2)CC1 [Compound 13, 4-[1-(4-Chlorophenyl)-1H-pyrrolo[2,3-c]pyridin-3-yl]-N-methyl-N-[(1-methylpiperidin-4-yl)methyl] piperidine-1-carboxamide; formic acid]	> 7.00
Clc1ccc(-n2nc(NCCN3CCOCC3)c3ccncc32)cc1 [Compound 44, 1-(4-Chlorophenyl)-N-[2-(morpholin-4-yl)ethyl]-1H-pyrazolo[3,4-c]pyridin-3-amine]	5.60 to 6.30
O=C(NCCN1CCNCC1)N1CCC(c2cn(-c3ccc(Cl)cc3)c3cnccc23)CC1 [Compound 23, 4-[1-(4-Chlorophenyl)-1H-pyrrolo[2,3-c]pyridin-3-yl]-N-[2-(piperazin-1-yl)ethyl] piperidine-1-carboxamide]	> 7.00
CN1CCN(C)C(CNC(=O)N2CCC(c3cn(-c4ccc(Cl)cc4)c4cnccc34)CC2)C1 (stereo not shown) [Compound 21, 4-[1-(4-Chlorophenyl)-1H-pyrrolo[2,3-c]pyridin-3-yl]-N-[(1,4-dimethyl-piperazin-2-yl)methyl] piperidine-1-carboxamide]	> 7.00
O=C(NCCCN1CCOCC1)N1CCC(c2cn(-c3ccc(Cl)cc3)c3cnccc23)CC1 [Compound 26, 4-(1-(4-Chlorophenyl)-1H-pyrrolo[2,3-c]pyridin-3-yl]-N-[3-(morpholin-4-yl)propyl] piperidine-1-carboxamide]	> 7.00
